# Measurements reported in patent US11691949B2, “Quinoline sulfonamide compounds and their use as antibacterial agents” (OTAGO INNOVATION LIMITED, priority 2017, dated 2023).
# Structures can show the parent of a compound that is named as a salt. Where two headings read alike, the source gives them in different places.
# Columns and labels:
# Type in all cases: cell-based
# [1] = system: S. aureus ATCC 6538; assay: MIC by broth microdilution, S. aureus; settings: Staphylococcus aureus
# Method in brief: (§1)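 Overnight cultures diluted to ~5×10^5 cfu/mL final; S. aureus in TSB and CAMHB, E. coli in LB and CAMHB, zinc sulphate to 50 μM final as required; two-fold serial dilutions. MIC = lowest concentration with no growth by OD600 after 24 h, 37° C, 200 rpm. MBC by Miles-Misra drop-plate viability count.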
# [2] = system: S. uberis ATCC 19436; assay: MIC by broth microdilution, S. uberis; settings: Streptococcus uberis
# Method in brief: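 Streptococcus uberis ATCC 19436 was tested in Todd Hewitt Broth by broth microdilution in 96-well flat bottom plates, in biological triplicate. Overnight cells were diluted to OD600 of approximately 0.025, giving about 5×10^5 cfu/mL in the wells. Compounds were serially diluted two-fold to 200 μl, incubated 24 h at 37° C. and 200 rpm, and the MIC was taken from OD600.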
# [3] = system: E. coli ATCC 10596; assay: MIC by broth microdilution, E. coli; settings: Escherichia coli
# Method in brief: as §1
# [4] = ATCC6538, No Zinc, read-out: S. aureus ATCC 6538 MIC
# [5] = ATCC6538, Zinc (50 μM), read-out: S. aureus ATCC 6538 MIC
# [6] = ATCC19436, No Zinc, read-out: S. uberis ATCC 19436 MIC
# [7] = ATCC19436, Zinc (50 μM), read-out: S. uberis ATCC 19436 MIC
# [8] = ATCC 10536 / ATCC 10596, No Zinc, read-out: E. coli ATCC 10536 MIC
# [9] = ATCC 10536 / ATCC 10596, Zinc (50 μM), read-out: E. coli ATCC 10536 MIC
"MIC [1, 4] [µg/mL]","MIC [1, 5] [µg/mL]","MIC [2, 6] [µg/mL]","MIC [2, 7] [µg/mL]","MIC [3, 8] [µg/mL]","MIC [3, 9] [µg/mL]",SMILES,"MIC ([1]; ATCC6538, read-out: S. aureus ATCC 6538 MIC, No Zinc) [µg/mL]","MIC ([1]; ATCC6538, read-out: S. aureus ATCC 6538 MIC, Zinc (50 μM)) [µg/mL]","MIC ([2]; ATCC19436, read-out: S. uberis ATCC 19436 MIC, No Zinc) [µg/mL]","MIC ([2]; ATCC19436, read-out: S. uberis ATCC 19436 MIC, Zinc (50 μM)) [µg/mL]","MIC ([3]; ATCC 10536 / ATCC 10596, read-out: E. coli ATCC 10536 MIC, No Zinc) [µg/mL]","MIC ([3]; ATCC 10536 / ATCC 10596, read-out: E. coli ATCC 10536 MIC, Zinc (50 μM)) [µg/mL]"
,,,,,,"NC(=O)CNCc1ccc2cccc(NS(=O)(=O)c3ccc(C(F)(F)F)cc3)c2n1 [ZDR266, 2-(((8-((4-(Trifluoromethyl)phenyl)sulfonamido)quinolin-2-yl)methyl)amino)acetamide trifluoroacetate]",64,32,16,16,128,256
> 256,> 256,> 256,0.0625,> 256,256,"C=CCNCc1ccc2cccc(NS(=O)(=O)c3ccc(C(F)(F)F)cc3)c2n1 [ZDR097, N-(2-((Allylamino)methyl)quinolin-8-yl)-4-(trifluoromethyl)benzenesulfonamide]",,,,,,
> 256,> 256,256,0.25,> 256,> 256,"CN(C)Cc1ccc2cccc(NS(=O)(=O)c3ccsc3)c2n1 [ZDR081, N-(2-((Dimethylamino)methyl)quinolin-8-yl)thiophene-3-sulfonamide]",,,,,,
> 256,> 256,64,4,> 256,> 256,"O=S(=O)(Nc1cccc2ccc(CN(Cc3ccccn3)Cc3ccccn3)nc12)c1ccc(C(F)(F)F)cc1 [ZDR096, N-(2-((Bis(pyridin-2-ylmethyl)amino)methyl)quinolin-8-yl)-4-(trifluoromethyl)benzenesulfonamide]",,,,,,
128,> 256,128,0.25,> 256,> 256,"CN(C)Cc1ccc2cccc(NS(=O)(=O)c3cccc([N+](=O)[O-])c3)c2n1 [ZDR313, N-(2-((Dimethylamino)methyl)quinolin-8-yl)-3-nitrobenzenesulfonamide]",,,,,,
32,128,16,0.125,64,256,"CC(C)CNCc1ccc2cccc(NS(=O)(=O)c3ccc(C(F)(F)F)cc3)c2n1 [ZDR403, N-(2-((Iso-Butylamino)methyl)quinolin-8-yl)-4-(trifluoromethyl)benzenesulfonamide]",,,,,,
> 256,> 256,> 256,32,> 256,> 256,"CN(C)Cc1ccc2cccc(NS(=O)(=O)c3cn(C)cn3)c2n1 [ZDR195, N-(2-((Dimethylamino)methyl)quinolin-8-yl)-1-methyl-1H-imidazole-4-sulfonamide]",,,,,,
128,> 256,> 256,0.125,> 256,> 256,O=S(=O)(Nc1cccc2ccc(CNCc3ccccc3)nc12)c1ccc(C(F)(F)F)cc1 [ZDR103],,,,,,
> 256,> 256,256,0.125,> 256,> 256,"CN(C)Cc1ccc2cccc(NS(=O)(=O)c3ccccc3OC(F)(F)F)c2n1 [ZDR191, N-(2-((Dimethylamino)methyl)quinolin-8-yl)-2-(trifluoromethoxy)benzenesulfonamide]",,,,,,
64,256,32,0.125,> 256,256,"O=S(=O)(Nc1cccc2ccc(CN3CCCCCC3)nc12)c1ccc(C(F)(F)F)cc1 [ZDR408, N-(2-(Azepan-1-ylmethyl)quinolin-8-yl)-4-(trifluoromethyl)benzenesulfonamide]",,,,,,
> 256,> 256,> 256,8,> 256,> 256,"CN(C)Cc1ccc2cccc(NS(=O)(=O)c3ccc(C(N)=O)cc3)c2n1 [ZDR073, 4-(N-(2-((Dimethylamino)methyl)quinolin-8-yl)sulfamoyl)benzamide]",,,,,,
128,256,> 256,0.0625,> 256,> 256,"CN(C)Cc1ccc2cccc(NS(=O)(=O)c3ccc(Cl)cc3)c2n1 [ZDR064, 4-Chloro-N-(2-((dimethylamino)methyl)quinolin-8-yl)benzenesulfonamide]",,,,,,
> 256,> 256,> 256,16,> 256,> 256,"CN(C)Cc1ccc2cccc(NS(=O)(=O)c3cccc(C(N)=O)c3)c2n1 [ZDR331, 3-(N-(2-((Dimethylamino)methyl)quinolin-8-yl)sulfamoyl)benzamide]",,,,,,
128,128,64,0.125,> 256,> 256,"CN(C)Cc1ccc2cccc(NS(=O)(=O)c3ccc(NC(=O)OC(C)(C)C)cc3)c2n1 [ZDR333, tert-Butyl (4-(N-(2-((dimethylamino)methyl)quinolin-8-yl)sulfamoyl)phenyl)carbamate]",,,,,,
> 256,256,256,0.0625,> 256,> 256,"CC(=O)c1cccc(S(=O)(=O)Nc2cccc3ccc(CN(C)C)nc23)c1 [ZDR311, 3-Acetyl-N-(2-((dimethylamino)methyl)quinolin-8-yl)benzenesulfonamide]",,,,,,
> 256,> 256,> 256,0.125,> 256,> 256,"O=C(N/N=C/c1ccc2cccc(NS(=O)(=O)c3ccc(C(F)(F)F)cc3)c2n1)c1ccccc1 [ZDR045, (E)-N-(2-((2-Benzoylhydrazono)methyl)quinolin-8-yl)-4-(trifluoromethyl)benzenesulfonamide]",,,,,,
64,128,> 256,0.0625,> 256,> 256,"CN(C)Cc1ccc2cccc(NS(=O)(=O)c3ccc(Br)cc3)c2n1 [ZDR305, 4-Bromo-N-(2-((dimethylamino)methyl)quinolin-8-yl)benzenesulfonamide]",,,,,,
16,16,64,0.125,> 256,> 256,"CC(C)NCc1ccc2cccc(NS(=O)(=O)c3ccc(C(F)(F)F)cc3)c2n1 [ZDR027, N-(2-((Isopropylamino)methyl)quinolin-8-yl)-4-(trifluoromethyl)-benzenesulfonamide]",,,,,,
> 256,> 256,> 256,0.125,> 256,> 256,"O=S(=O)(Nc1cccc2ccc(/C=N/OCc3ccccc3)nc12)c1ccc(C(F)(F)F)cc1 [ZDR137, (E)-N-(2-(((Benzyloxy)imino)methyl)quinolin-8-yl)-4-(trifluoromethyl)benzenesulfonamide]",,,,,,
128,> 256,256,0.25,256,> 256,"O=S(=O)(Nc1cccc2ccc(CNCC3CC3)nc12)c1ccc(C(F)(F)F)cc1 [ZDR087, N-(2-(((Cyclopropylmethyl)amino)methyl)quinolin-8-yl)-4-(trifluoromethyl)benzenesulfonamide]",,,,,,
128,> 256,> 256,0.25,> 256,> 256,"CN(C)Cc1ccc2cccc(NS(=O)(=O)c3ccc(Cl)nc3)c2n1 [ZDR322, 6-Chloro-N-(2-((dimethylamino)methyl)quinolin-8-yl)pyridine-3-sulfonamide]",,,,,,
> 256,> 256,128,1,> 256,> 256,"O=S(=O)(Nc1cccc2ccc(CNCCN3CCSCC3)nc12)c1ccc(C(F)(F)F)cc1 [ZDR113, N-(2-(((2-Thiomorpholinoethyl)amino)methyl)quinolin-8-yl)-4-(trifluoromethyl)benzenesulfonamide]",,,,,,
256,> 256,128,0.0625,256,> 256,"CN(C)Cc1ccc2cccc(NS(=O)(=O)c3cccc(Cl)c3)c2n1 [ZDR084, 3-Chloro-N-(2-((dimethylamino)methyl)quinolin-8-yl)benzenesulfonamide]",,,,,,
64,256,> 256,0.5,128,> 256,"CS(=O)(=O)NCCNCc1ccc2cccc(NS(=O)(=O)c3ccc(C(F)(F)F)cc3)c2n1 [ZDR180, N-(2-(((2-(Methylsulfonamido)ethyl)amino)methyl)quinolin-8-yl)-4-(trifluoromethyl)benzenesulfonamide]",,,,,,
